Results published in patent US6500821B1, “4-amino-1-aryl-1,5-dihydropyrrol-2-ones and process for making” (Arzneimittelwerk Dresden GmbH, priority 1999, dated 2002).

What was measured:
[1] = system: pentetrazol convulsion model; assay: Pentetrazol convulsion model, rat p.o.; format: in vivo; settings: po
Description: (§1) Compounds according to the present invention were tested in vivo for their anticonvulsive action as shown in Table 1 in mice by i.p. administration, or in rats administered orally according to the internationally customary standard (Pharmac. Weekblad, Sc.Ed. 14 132 (1992) and Antiepileptic Drugs, Third Ed., Raven Press, New York 1989).
(§2) Analogous results were obtained for oral action.

[2] = system: neurotoxicity; assay: Neurotoxicity, rat; format: in vivo
Description: as §1, §2

[3] = system: maximal electroshock; assay: Maximal electroshock, rat p.o.; format: in vivo; settings: po
Description: as §1, §2

[4] = system: Vogel Conflict Test; assay: Vogel Conflict Test; format: in vivo, rat
Text: In this model, continuous access to drinking water is withheld from rats for a certain time. After this period, free access is given to drinking water, but is coupled with a mild electrical stimulation. The conflict for the animals is between accepting the electrical stimulation or going without a drink.
The reactions to a conflict situation of this type are similar to the secondary phenomena of anxiety in man. The resulting avoidance reactions can be suppressed by anxiolytic substances. As a measure of the anxiolytic action, the number of tolerated current pulses of the animals treated with the test substance is assessed in comparison to the vehicle-treated control group.

[5] = system: s.c. pentetrazole; assay: Anticonvulsive action, s.c. pentetrazole (PTZ), mouse i.p.; format: in vivo; settings: ip, dose 30 mg/kg, read-out: Action, % of the protected animals
Description: as §1, with “1989). [table]” for “1989).”

[6] = system: elevated maze test; assay: Elevated maze test; format: in vivo, mouse; settings: for Activity in % (length of stay in the open arms, control = 100): mouse, intraperitoneal
Text: In this model, mice are placed in an elevated passage system with open and closed arms as described by Pellow, S., Chopin, P., File S. E., Briley, M.: Validation of open: closed arm entries in an elevated plus-maze as a measure of anxiety in rats. J. of Neuroscience Methods 14: 149-167, 1985; Hogg, S.: A review of the validity and variability of the elevated plus-maze as an animal model of anxiety. Pharmacology Biochemistry and Behavior: 21-30, 1996. Untreated animals repeatedly try the closed passages. The inhibition of anxiety is measured by the length of stay in the open arms as a percentage of the total length of stay.

[7] = system: maximal electroshock; assay: Anticonvulsive action, maximal electroshock (MES), mouse i.p.; format: in vivo; settings: ip, dose 300 mg/kg, read-out: Action, % of the protected animals
Description: as §1, with “1989). [table]” for “1989).”

[8] = Octanol/water partition coefficient; format: physicochemical; settings: read-out: log P (octanol/water partition coefficient)

Row | Compound | ED50 [1] [mg/kg] | NT50 neurotoxicity [2] [mg/kg] | ED50 [3] [mg/kg] | therapeutic index ([4]; Vogel Conflict Test) | Changed number of impulses to the control in % ([4]; rat, 3 mg/kg p.o.) [%] | Changed number of impulses to the control in % ([4]; rat, 10 mg/kg p.o.) [%] | dose from which an anxiolytic action was detected / equally effective dose ([4]; rat, p.o.) [mg/kg] | responders at 30 mg/kg [5] [%] | therapeutic index ([6]; elevated maze test) | proportionate length of stay in the open arms (in words) ([6]; intraperitoneal administration) | Activity in % (length of stay in the open arms, control = 100) ([6]; 1 mg/kg) | Activity in % (length of stay in the open arms, control = 100) ([6]; 3 mg/kg) [%] | Activity in % (length of stay in the open arms, control = 100) ([6]; 10 mg/kg) | Activity in % (length of stay in the open arms, control = 100) ([6]; 30 mg/kg) [%] | responders at 300 mg/kg [7] [%] | logP [8]
1 | O=C1C=C(N2CCOCC2)CN1c1ccc(Cl)cc1 [1-(4-chlorophenyl)-4-morpholin-4-yl-1,5-dihydropyrrol-2-one] | 11 | > 500 | 19 |  |  |  |  |  |  |  |  |  |  |  |  | 
2 | O=C1C=C(N2CCOCC2)CN1c1ccc(Cl)cc1 [Compound 4, 1-(4-chlorophenyl)-4-morpholin-4-yl-1,5-dihydropyrrol-2-one] |  |  |  | > 50 | 102 | 174 | 10 | 100 | > 50 | significantly increased | 128 (p < 0.05) % | 110 | 158 (p < 0.05) % | 129 | 0 | 1.91
